pIC50: −log10 of the molar value. Where only a bound is given, the exact number is not on record here.

For this test, the target named is T1, Aromatase (Homo sapiens, UniProt P11511).
T1 sequence (P11511 whole entry): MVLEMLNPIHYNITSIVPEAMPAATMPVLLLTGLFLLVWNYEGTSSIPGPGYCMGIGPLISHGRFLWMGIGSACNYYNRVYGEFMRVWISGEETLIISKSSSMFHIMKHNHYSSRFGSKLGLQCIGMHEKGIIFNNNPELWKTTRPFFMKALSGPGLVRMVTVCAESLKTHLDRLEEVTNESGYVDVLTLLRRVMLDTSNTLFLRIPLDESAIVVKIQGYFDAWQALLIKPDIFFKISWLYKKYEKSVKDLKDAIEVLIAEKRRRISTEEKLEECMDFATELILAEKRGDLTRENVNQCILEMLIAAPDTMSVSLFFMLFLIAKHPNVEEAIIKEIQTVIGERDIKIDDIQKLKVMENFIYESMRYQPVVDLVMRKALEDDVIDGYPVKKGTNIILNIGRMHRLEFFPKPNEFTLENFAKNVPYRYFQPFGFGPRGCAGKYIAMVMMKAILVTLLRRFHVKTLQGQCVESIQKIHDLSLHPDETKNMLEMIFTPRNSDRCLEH
Description: Inhibition of human aromatase

In turn, `COCOc1ccc(C(=O)/C=C/c2ccc(OCOC)c(CC=C(C)C)c2)c(O)c1` showed a pIC50 below 3.62.
For `COc1ccc(C(=O)/C=C/c2ccc(OCC=C(C)C)cc2)c(O)c1` the value was below 3.57.

As usually defined, the pIC50 is −log10 of the IC50, conventionally taken in molar units.

These data come from ChEMBL document CHEMBL1143702, “Synthesis and biological evaluation of (+/-)-abyssinone II and its analogues as aromatase inhibitors for chemoprevention of breast cancer” (J Med Chem, 2007).
